In US20260166016A1, “GPR139 RECEPTOR AGONIST, PREPARATION METHOD THEREFOR, AND APPLICATION THEREOF” (NEUBO APPTECH CO., LTD., priority 2022, published 2026):

Legend:
[1] = tested on: mice in Forced Swim Test; experiment: Mouse Forced Swim Test; format: in vivo; conditions: male CD1 (ICR) mice; i.p. 2.5 mg/mL solution at 0.1 mL/10 g; test 10 minutes after injection; FIG. 3
Method: Mouse strain: Male Crl: CD1 (ICR) mice; Weight: 35-40 g; Quantity: 16 pieces
Group 1, placebo group: 8 mice, 4 mice per cage;
Group 2, NRB181 group: 8 mice, 4 mice per cage.
20.3.1 Preparation of placebo before experiment: 10% DMSO+saline.
20.3.2 Preparation of compound NRB181 before experiment: 10 mg of NRB181 was weighed and added to 4 mL of placebo, mixed well.
20.3.4 On the morning of the experimental day, all mice were weighed and then evenly divided into each group based on their weight, with 8 mice per group, for a total of 16 mice.
20.3.5 The mice were transferred to the behavioral laboratory and allowed to adapt for 3 hours.
20.3.6 Drug injection: mice of Group 1 received intraperitoneal injection of placebo at a dose of 0.1 mL/10 g; after Forced Swim Test of the mice in Group 1, mice in Group 2 were intraperitoneally injected with compound NRB181 at a dose of 0.1 mL/10 g.
Mice of Group 1 underwent Forced Swim Test in sequence 10 minutes after injection. The mice were placed in a glass jar (diameter 10 cm, height 25 cm; water depth 15 cm, water temperature 23° C.) and swam for 6 minutes. The first 2 minutes were the adaptation period, and the last 4 minutes were the experimental period; The software records the immobility time, swimming time, and climbing time of mice within 4 minutes. […]

[2] = tested on: metabolic enzymes of pentobarbital sodium; experiment: LC-MS detection of pentobarbital sodium content in anesthetized mice (pilot experiment); format: in vivo, mouse; conditions: pentobarbital sodium content in mice by LC-MS, placebo vs compound
From the text: In addition, to determine whether compound NRB181 has an effect on the metabolic enzymes of pentobarbital sodium, we used LC-MS method to detect the pentobarbital sodium content in mice anesthetized with pentobarbital sodium under placebo and compound action in the pilot experiment.

[3] = tested on: LPS induced mouse depression model; experiment: LPS induced mouse depression model, Forced Swim Test; format: in vivo; conditions: gavage 2.5 mg/mL at 0.1 mL/10 g twice daily Day 1-4, test 24 hours after injection, FIG. 5
From the text: (§1) Mice: Male Crl: CD1 (ICR) mice; 10-14 weeks old; Weight: 35-40 g; Quantity: 40 pieces
(§2) Group 1, placebo+saline group: 10 mice; divided into 2 cages, 5 mice per cage.
(§3) Group 2, placebo+lipopolysaccharide (LPS) group: 10 mice; divided into 2 cages, 5 mice per cage.
(§4) Group 3, compound NRB181+saline group: 10 mice; divided into 2 cages, 5 mice per cage.
(§5) Group 4, compound NRB181+lipopolysaccharide (LPS) group: 10 mice; divided into 2 cages, 5 mice per cage.
(§6) 21.3.1 Preparation of placebo before experiment: 0.5% CMC sodium+1% Tween80+saline. In a clean bench, 4 tubes of 40 mL placebo were prepared using pyrogen-free centrifuge tubes and ultrapure water, totaling 160 mL, ensuring the absence of endotoxins (LPS). Sterile and endotoxin free centrifuge tubes were used to divide […] of placebo into 4 mL/tube, for a total of 30 tubes, and stored at 4° C. for future use.
LPS with a purity of >98% was required 3.2 mg of LPS was accurately weighed and dissolved in 40 mL of placebo to prepare a sterile solution of 0.08 mg/mL. After thorough mixing, the solution was divided into sterile and endotoxin-free centrifuge tubes, 4 mL per tube. […]
21.3.15 On the Day 5 of experiment, 24 hours after mice of Group 1 were injected with saline the day before, a Forced Swim Test was conducted on each group of mice starting from Group 1, and the immobility time of each mouse was recorded.

[4] = tested on: LPS induced mouse depression model; experiment: LPS induced mouse depression model, Open Field Test; format: in vivo; conditions: gavage 2.5 mg/mL at 0.1 mL/10 g twice daily Day 1-4, test 6 hours after injection, FIGS. 6 and 7
From the text: as §1, §2, §3, §4, §5, §6
(§7) LPS with a purity of >98% was required 3.2 mg of LPS was accurately weighed and dissolved in 40 mL of placebo to prepare a sterile solution of 0.08 mg/mL. […]
21.3.13 On the afternoon of the Day 4 of the experiment, 6 hours after mice in Group 1 were injected with saline, an Open Field Test was conducted on each group starting from Group 1. Relevant parameters were recorded, and then the mice in each group were returned to their respective home cages.

[5] = tested on: LPS induced mouse depression model; experiment: LPS induced mouse depression model, body weight; format: in vivo; conditions: male CD1 (ICR) mice; gavage 2.5 mg/mL at 0.1 mL/10 g twice daily Day 1-4; LPS i.p. Day 4; weighed Day 5; FIG. 4
From the text: as §1, §2, §3, §4, §5, §6, §7
21.3.4 On the first day of the experiment at 8:00 am, four groups of mice were randomly divided into groups, and the weight of each mouse was recorded before being placed back in their respective cages. […]
21.3.14 On the Day 5 of the experiment at 9:00 am, each group of mice was weighed and recorded, and then were returned to their home cages.

C[C@H](NC(=O)CNC(=O)c1cc(Cl)ccn1)c1c(F)cccc1F [NRB181]
time of despair (immobility time) in Forced Swim Test [1]: significantly reduce
effect on the metabolic enzymes of pentobarbital sodium [2]: no effect
despair time (immobility time) in the Forced Swim Test [3]: significantly reduce the despair time
activity of mice in the Open Field Test (number of line crossings, total distance traveled) [4]: significantly increased the activity
weight loss (body weight changes) [5]: significantly alleviate weight loss
